Counter-ions that a name gives are not always drawn.
Tested on: MIN6 cell
Assay: Insulin secretion enhancing action in cultured β-cell (MIN6)
Assay type: cell-based
Settings: in the presence of 14.5 mM glucose; drug concentration 0.1 μM
Procedure: Culture of the MIN6 cells and insulin secretion test utilizing the MIN6 cells were performed basically according to the methods described in literature (Ishihara et al., Diabetologia, vol. 36, pp.1139-1145, 1993). The effect of a compound on the insulin secretion in the presence of 14.5 mM glucose was determined by measuring insulin amounts in cell culture supernatants collected as follows. MIN6 cells cultured on a 24-well plate were washed twice by using 1 ml of Buffer A (119 mM sodium chloride, 4.74 mM potassium chloride, 2.54 mM calcium chloride, 1.19 mM magnesium sulfate, 1.19 mM potassium dihydrogenphosphate, 10 mM 2-[4-(2-hydroxyethyl)-1-piperazinyl]ethanesulfonic acid, 0.1% bovine serum albumin, pH 7.3) containing 2 mM glucose, and then were incubated in 1 ml of Buffer A containing 2 mM glucose at 37° C. for 45 minutes. After the incubation, the culture supernatant was changed to Buffer A (0.9 ml) containing a test compound at various concentrations and 2 mM glucose, and the cells were further incubated at 37° C. for 15 minutes. The MIN6 cells were stimulated with glucose by the addition of Buffer A (0.1 ml) containing 127 mM glucose to the culture (final glucose concentration: 14.5 mM). After the stimulation, the cells were further incubated at 37° C. for 45 minutes, and then the culture supernatant was collected.
Separately, the effect of a compound on the insulin secretion in the presence of 5 mM glucose was determined by measuring insulin amounts in cell culture supernatants collected as follows. MIN6 cells cultured on a 24-well plate were washed twice by using 1 ml of Buffer A containing 5 mM glucose, and then the culture supernatant was changed to Buffer A (0.9 ml) containing a test compound at various concentrations and 5 mM glucose. Then, the cells were incubated at 37° C. for 45 minutes (final glucose concentration: 5 mM), and the culture supernatant was collected.
After the culture supernatant was diluted with a phosphate buffer containing 1% bovine serum albumin, 0.1% Tween 20, 0.12% disodium ethylenediaminetetraacetate and 0.1% sodium azide, antibody-reactive insulin secreted in the culture supernatant was quantified by enzyme immunoassay or radio immunoassay. […] The results are indicated as averages (avg) for 3 to 4 samples with standard error values (se).

SMILES | Amount of secreted insulin (ng/ml) avg
COc1ccc(Cl)cc1C(=O)NCCc1ccc(S(=O)(=O)NC(=O)NC2CCCCC2)cc1 [Glibenclamide, reference compound] | 177.8 ng/mL

Same assay, conditions: in the presence of 14.5 mM glucose; drug concentration 1.0 μM

SMILES | Amount of secreted insulin (ng/ml) avg
CC(C)[C@H]1CC[C@H](C(=O)N[C@H](Cc2ccccc2)C(=O)O)CC1 [AY4166, AY-4166, reference compound] | 195.1 ng/mL
CCCN1C(=O)N2C[C@H](C(C)(C)C)N=C2c2[nH]c(C3CCCC3)nc21.Cl [Compound 12, (S)-8-tert-butyl-2-cyclopentyl-7,8-dihydro-4-propyl-1H-imidazo[2,1-i]purin-5(4H)-one hydrochloride] | 227.8 ng/mL
CCCN1C(=O)N2CC(Cc3ccc(F)cc3)N=C2c2[nH]c(C3CCCC3)nc21 (stereo not drawn) [Compound 18, 2-cyclopentyl-8-(4-fluorobenzyl)-7,8-dihydro-4-propyl-1H-imidazo[2,1-i]purin-5(4H)-one hydrochloride] | 181.9 ng/mL
CCCN1C(=O)N2CC(Cc3cccc(F)c3)N=C2c2[nH]c(C3CCCC3)nc21 (stereo not drawn) [Compound 19, 2-cyclopentyl-8-(3-fluorobenzyl)-7,8-dihydro-4-propyl-1H-imidazo[2,1-i]purin-5(4H)-one hydrochloride] | 223.8 ng/mL
CCCN1C(=O)N2CC(Cc3ccc(Cl)cc3)N=C2c2[nH]c(C3CCCC3)nc21 (stereo not drawn) [Compound 20, 8-(4-chlorobenzyl)-2-cyclopentyl-7,8-dihydro-4-propyl-1H-imidazo[2,1-i]purin-5(4H)-one hydrochloride] | 235.9 ng/mL
CCCN1C(=O)N2C[C@@H](Cc3ccccc3)N=C2c2[nH]c(C3CCC3)nc21 [Compound 37, (R)-8-benzyl-2-cyclobutyl-7,8-dihydro-4-propyl-1H-imidazo[2,1-i]purin-5(4H)-one hydrochloride] | 202.8 ng/mL
CCCN1C(=O)N2C[C@@H](Cc3ccccc3)N=C2c2[nH]c(C(C)(C)C)nc21 [Compound 43, (R)-8-benzyl-2-tert-butyl-7,8-dihydro-4-propyl-1H-imidazo[2,1-i]purin-5(4H)-one hydrochloride] | 199.1 ng/mL
CCCN1C(=O)N2CC(Cc3ccc(F)cc3)N=C2c2[nH]c(C3CCCCC3)nc21 (stereo not drawn) [Compound 50, 2-cyclohexyl-8-(4-fluorobenzyl)-7,8-dihydro-4-propyl-1H-imidazo[2,1-i]purin-5(4H)-one hydrochloride] | 209.5 ng/mL
CCCN1C(=O)N2C[C@@H](Cc3ccc(F)cc3)N=C2c2[nH]c(-c3ccoc3)nc21 [Compound 54, (R)-8-(4-fluorobenzyl)-2-(3-furyl)-7,8-dihydro-4-propyl-1H-imidazo[2,1-i]purin-5(4H)-one] | 216.1 ng/mL
CCCN1C(=O)N2CC(Cc3cc(Cl)ccc3Cl)N=C2c2[nH]c(C3CCCC3)nc21 (stereo not drawn) [Compound 65, 2-cyclopentyl-8-(2,5-dichlorobenzyl)-7,8-dihydro-4-propyl-1H-imidazo[2,1-i]purin-5(4H)-one hydrochloride] | 207.8 ng/mL

Same assay, conditions: low glucose concentration (5 mM); controls for comparison

SMILES | insulin secretion enhancing action at low glucose
CC(C)[C@H]1CC[C@H](C(=O)N[C@H](Cc2ccccc2)C(=O)O)CC1 [AY4166, AY-4166, reference compound] | showed marked secretion enhancing action
COc1ccc(Cl)cc1C(=O)NCCc1ccc(S(=O)(=O)NC(=O)NC2CCCCC2)cc1 [Glibenclamide, reference compound] | showed marked secretion enhancing action

Tested on: not given
Assay: not given
Settings: not given

SMILES | melting point
CCCCc1nc2c([nH]1)C1=NC(Cc3ccc(F)cc3)CN1C(=O)N2CCC.Cl (stereo not drawn) | 193 to 196 °C
CCCN1C(=O)N2CC(Cc3ccc(F)cc3)N=C2c2[nH]c(C3CCCC3)nc21 (stereo not drawn) (as salt: hydrochloride) [Compound 18, 2-cyclopentyl-8-(4-fluorobenzyl)-7,8-dihydro-4-propyl-1H-imidazo[2,1-i]purin-5(4H)-one hydrochloride] | 226 to 228 °C
CCCN1C(=O)N2CC(Cc3ccc(Cl)cc3)N=C2c2[nH]c(C3CCCC3)nc21 (stereo not drawn) (as salt: hydrochloride) [Compound 20, 8-(4-chlorobenzyl)-2-cyclopentyl-7,8-dihydro-4-propyl-1H-imidazo[2,1-i]purin-5(4H)-one hydrochloride] | 222 to 224 °C
CCCN1C(=O)N2CC(Cc3ccc(Br)cc3)N=C2c2[nH]c(C3CCCC3)nc21 (stereo not drawn) (as salt: hydrochloride) [Compound 23, 8-(4-bromobenzyl)-2-cyclopentyl-7,8-dihydro-4-propyl-1H-imidazo[2,1-i]purin-5(4H)-one hydrochloride] | 184 to 186 °C
CCCN1C(=O)N2CC(CCc3ccccc3)N=C2c2[nH]c(C3CCCC3)nc21 (stereo not drawn) (as salt: hydrochloride) [Compound 31, 2-cyclopentyl-7,8-dihydro-8-phenethyl-4-propyl-1H-imidazo[2,1-i]purin-5(4H)-one hydrochloride] | 171 to 173 °C
CCCc1nc2c([nH]1)C1=N[C@H](Cc3ccccc3)CN1C(=O)N2CCC (as salt: hydrochloride) [Compound 35, (R)-8-benzyl-7,8-dihydro-2,4-dipropyl-1H-imidazo[2,1-i]purin-5(4H)-one hydrochloride] | 195 to 197 °C
CCCN1C(=O)N2CC(Cc3ccc(F)cc3)N=C2c2[nH]c(C3CCCCC3)nc21 (stereo not drawn) (as salt: hydrochloride) [Compound 50, 2-cyclohexyl-8-(4-fluorobenzyl)-7,8-dihydro-4-propyl-1H-imidazo[2,1-i]purin-5(4H)-one hydrochloride] | 237 to 239 °C
CCCN1C(=O)N2CC(Cc3cc(Cl)ccc3Cl)N=C2c2[nH]c(C3CCCC3)nc21 (stereo not drawn) (as salt: hydrochloride) [Compound 65, 2-cyclopentyl-8-(2,5-dichlorobenzyl)-7,8-dihydro-4-propyl-1H-imidazo[2,1-i]purin-5(4H)-one hydrochloride] | 172 to 173 °C
CCCN1C(=O)N2C[C@H](C(C)(C)C)N=C2c2[nH]c(C3CCCC3)nc21.Cl [Compound 12, (S)-8-tert-butyl-2-cyclopentyl-7,8-dihydro-4-propyl-1H-imidazo[2,1-i]purin-5(4H)-one hydrochloride] | 184 to 186 °C

Next, values leading:

melting point | SMILES
109 to 112 °C | CCCN1C(=O)N2C[C@H](C(C)C)N=C2c2[nH]c(C3CCCC3)nc21.Cl
146 to 148 °C | CCCCC1CN2C(=O)N(CCC)c3nc(C4CCCC4)[nH]c3C2=N1.Cl (stereo not drawn)
215 to 217 °C | CCCN1C(=O)N2CC(Cc3ccc([N+](=O)[O-])cc3)N=C2c2[nH]c(C3CCCC3)nc21.Cl (stereo not drawn)
198 to 200 °C | CCCN1C(=O)N2C[C@@H](Cc3ccccc3)N=C2c2c1ncn2Cc1ccccc1.Cl
191 to 192 °C | CCCc1nc2c([nH]1)C1=NC(Cc3ccc(Cl)cc3)CN1C(=O)N2CCC.Cl (stereo not drawn)
214 to 215 °C | CCCN1C(=O)N2CC(Cc3ccc(Cl)cc3)N=C2c2[nH]c(C3CCC3)nc21.Cl (stereo not drawn)
199 to 200 °C | CCCc1nc2c([nH]1)C1=NC(Cc3ccc(F)cc3)CN1C(=O)N2CCC.Cl (stereo not drawn)
139 to 140 °C | CCCc1nc2c([nH]1)C1=NC(Cc3cccc(F)c3)CN1C(=O)N2CCC.Cl (stereo not drawn)
164 to 165 °C | CCCN1C(=O)N2CC(Cc3cccc(F)c3)N=C2c2[nH]c(C3CCC3)nc21.Cl (stereo not drawn)
186 to 187 °C | CCCN1C(=O)N2CC(Cc3cccc(F)c3)N=C2c2[nH]c(CC(C)C)nc21 (stereo not drawn)
218 to 219 °C | CCCN1C(=O)N2C[C@@H](C)N=C2c2[nH]c(C3CCCC3)nc21.Cl
159 to 160 °C | CCCN1C(=O)N2CC(Cc3ccccc3F)N=C2c2[nH]c(CC(C)C)nc21 (stereo not drawn)
156 to 157 °C | CCCN1C(=O)N2C[C@H](C(C)C)N=C2c2[nH]c(C(C)C)nc21.Cl
116 to 118 °C | CCCN1C(=O)N2C[C@@H](C(C)C)N=C2c2[nH]c(C3CCCC3)nc21.Cl
214 to 216 °C | CCCN1C(=O)N2C[C@@H](Cc3ccccc3)N=C2c2[nH]c(C3CCC3)nc21 (as salt: hydrochloride) [Compound 37, (R)-8-benzyl-2-cyclobutyl-7,8-dihydro-4-propyl-1H-imidazo[2,1-i]purin-5(4H)-one hydrochloride]
220 to 222 °C | CCCN1C(=O)N2C[C@@H](Cc3ccccc3)N=C2c2[nH]c(C(C)(C)C)nc21 (as salt: hydrochloride) [Compound 43, (R)-8-benzyl-2-tert-butyl-7,8-dihydro-4-propyl-1H-imidazo[2,1-i]purin-5(4H)-one hydrochloride]
149 to 150 °C | CCCN1C(=O)N2C[C@@H](Cc3ccc(F)cc3)N=C2c2[nH]c(-c3ccoc3)nc21 [Compound 54, (R)-8-(4-fluorobenzyl)-2-(3-furyl)-7,8-dihydro-4-propyl-1H-imidazo[2,1-i]purin-5(4H)-one]
204 to 206 °C | CCCN1C(=O)N2C[C@H](C(C)(C)C)N=C2c2[nH]c(-c3ccoc3)nc21 [Compound 67, (S)-8-tert-butyl-2-(3-furyl)-7,8-dihydro-4-propyl-1H-imidazo[2,1-i]purin-5(4H)-one]

Tested on: Wistar male rats
Assay: not given
Settings: 1 mg/kg, iv

SMILES | % Ratio based on control (area of plasma insulin)
CCCN1C(=O)N2CC(Cc3cccc(F)c3)N=C2c2[nH]c(C3CCCC3)nc21 (stereo not drawn) [Compound 19, 2-cyclopentyl-8-(3-fluorobenzyl)-7,8-dihydro-4-propyl-1H-imidazo[2,1-i]purin-5(4H)-one hydrochloride] | 291 ± 42%

Same assay, conditions: 1 mg/kg, iv; after glucose-loading (10 mg/kg iv)

SMILES | Area of plasma insulin, test compound-administered group
CCCN1C(=O)N2CC(Cc3cccc(F)c3)N=C2c2[nH]c(C3CCCC3)nc21 (stereo not drawn) [Compound 19, 2-cyclopentyl-8-(3-fluorobenzyl)-7,8-dihydro-4-propyl-1H-imidazo[2,1-i]purin-5(4H)-one hydrochloride] | 13.41 ± 1.95 ng·s/mL
